Measured values published in patent publication US20050075335A1, “Pharmaceutical composition comprising n((1-n-butyl-4-piperidinyl)methyl)-3,4-dihydro-2h-(1,3)oxazino(3,2-a)indole-10-carboxamide or salt and process therefor comprising dry granulation” (priority 2002, published 2005).
Structures can show the parent of a compound that is named as a salt.

Experiment: Aerated and tapped bulk density of SB-207266-A
Type: physicochemical
Conditions: SB-207266-A batches from Description 1
With `CCCCN1CCC(CNC(=O)c2c3n(c4ccccc24)CCCO3)CC1.Cl` [BDC-G-02C] the Aerated bulk density was 0.142 g/mL and the “Tapped bulk Density” value was 0.300 g/mL. For `CCCCN1CCC(CNC(=O)c2c3n(c4ccccc24)CCCO3)CC1.Cl` [BDC-G-03C], the Aerated bulk density was 0.173 g/mL and the “Tapped bulk Density” value was 0.339 g/mL. In the case of `CCCCN1CCC(CNC(=O)c2c3n(c4ccccc24)CCCO3)CC1.Cl` [BDC-G-04C], the Aerated bulk density is reported as 0.146 g/mL and the “Tapped bulk Density” value is reported as 0.310 g/mL. With `CCCCN1CCC(CNC(=O)c2c3n(c4ccccc24)CCCO3)CC1.Cl` [BDC-G-05C] the Aerated bulk density was 0.152 g/mL and the “Tapped bulk Density” value was 0.308 g/mL. With `CCCCN1CCC(CNC(=O)c2c3n(c4ccccc24)CCCO3)CC1.Cl` [BDC-H-01C] the Aerated bulk density was 0.136 g/mL and the “Tapped bulk Density” value was 0.250 g/mL.

Same assay, conditions: typical value, product of Description 2
For `CCCCN1CCC(CNC(=O)c2c3n(c4ccccc24)CCCO3)CC1` [SB-207266-A, N-[(1-^nbutyl-4-piperidinyl)methyl]-3,4-dihydro-2H-[1,3]-oxazino[3,2-a]indole-10-carboxamide hydrochloride], the Aerated bulk density was “ca. 0.14 g/ml” and the Tapped bulk Density was “ca. 0.31 g/ml”.
